Reference: PubChem BioAssay (NCI)
“And” between values parts separate entries of the source, which are not always exact repeats. Identical values can stand only once.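 Interpolation was linear, between the two tested concentrations surrounding the appropriate level; five concentrations were tested over 48 hours in 96-well plates. Abbreviation: GI50, concentration required for 50% inhibition of growth. Definition used: TGI = concentration required for complete inhibition of growth.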 Numbered stars: 1 amine (or outer) side, 2 acyl side, 3 side chain; on linkers, the order of the positions; unused ones are H or OH. Bridge positions count the residues as written; N and C are the ends. Square brackets hold non-standard residues; d marks the D form. Peptide text beside a SMILES is read from it. I, II: the chains in the order shown. Actinocin(1to9) = Cc1c2oc3c(C)ccc(C(=O)[*:2])c3nc-2c(C(=O)[*:1])c(N)c1=O; NMeY = CN[CH](Cc1ccc(O)cc1)C(=O)O; Sar = CNCC(=O)O

Columns and labels:
Assay in all cases: DTP human tumour cell line panel, 48 h
[1] = test system: CAKI-1 renal
[2] = test system: EKVX NSCLC
[3] = test system: HCC-2998 colon
[4] = test system: LOX IMVI melanoma
[5] = test system: OVCAR-8 ovarian
[6] = test system: SF-539 CNS
[7] = test system: SK-MEL-28 melanoma
[8] = test system: TK-10 renal
[9] = test system: UO-31 renal
[10] = test system: RXF 393 renal

Compound: COC(C)C(O)(C(=O)OCC1=CCN2CCC(O)C12)C(C)(C)O (stereo unspecified)
- TGI [1]: > 100 µM
- TGI [2]: > 100 µM
- TGI [3]: > 100 µM
- TGI [4]: > 100 µM
- TGI [5]: > 100 µM
- TGI [6]: > 100 µM
- TGI [7]: > 100 µM
- TGI [8]: > 100 µM
- TGI [9]: > 100 µM

Compound: C[CH2][Sn]([CH2]C)([O]C(=O)c1ccc(F)cc1)[O]C(=O)c1ccc(F)cc1
- GI50 [1]: 4.05 µM
- TGI [1]: 16.3 µM
- GI50 [2]: > 100 µM
- TGI [2]: > 100 µM
- GI50 [3]: 90.9 µM
- TGI [3]: > 100 µM
- GI50 [4]: 18 µM
- TGI [4]: 37.9 µM
- GI50 [5]: > 52.9 µM
- TGI [5]: > 79.2 µM
- GI50 [10]: 13.7 µM
- TGI [10]: 28.8 µM
- GI50 [6]: 16.4 µM
- TGI [6]: 30.1 µM
- GI50 [7]: 18.6 µM
- TGI [7]: 34.8 µM
- GI50 [8]: 17.8 µM
- TGI [8]: 32.4 µM
- GI50 [9]: 32.8 µM
- TGI [9]: > 56.3 µM

Compound: CC(C)(C)OC(=O)N[C@@H](Cc1ccccc1)C(=O)N(Cc1ccccc1)C1(C(=O)NCc2ccccc2)CCN(Cc2ccccc2)CC1
- GI50 [1]: 2.32 µM
- TGI [1]: > 100 µM
- GI50 [3]: 4.54 µM
- TGI [3]: > 100 µM
- GI50 [4]: 3.65 µM
- TGI [4]: 21.2 µM
- GI50 [5]: 3.51 µM
- TGI [5]: > 100 µM
- GI50 [10]: 3.12 µM
- TGI [10]: > 100 µM
- GI50 [8]: 3.17 µM
- TGI [8]: 70.3 µM
- GI50 [9]: 2.16 µM
- TGI [9]: > 100 µM

Compound: O=C(O)c1ccc(SSc2ccc(C(=O)O)cn2)nc1
- TGI [1]: > 100 µM
- TGI [2]: > 100 µM
- TGI [4]: > 100 µM
- TGI [5]: > 100 µM
- TGI [10]: > 100 µM
- TGI [6]: > 100 µM
- TGI [7]: > 100 µM
- TGI [8]: > 100 µM

Compound: O=C1N=C(Nc2nc(-c3csc(NC4=NC(=O)/C(=C\c5ccccc5)S4)n3)cs2)S/C1=C/c1ccccc1
- GI50 [1]: 29.2 µM
- TGI [1]: > 50 µM
- GI50 [2]: 12.7 µM
- TGI [2]: > 50 µM
- GI50 [3]: 8.2 µM
- TGI [3]: 45.5 µM
- GI50 [4]: > 50 µM
- TGI [4]: > 50 µM
- GI50 [5]: 15.6 µM
- TGI [5]: > 50 µM
- GI50 [10]: 18.5 µM
- TGI [10]: > 50 µM
- GI50 [6]: 13.6 µM
- TGI [6]: 39.7 µM
- GI50 [7]: > 50 µM
- TGI [7]: > 50 µM
- GI50 [8]: 10.1 µM
- TGI [8]: 33.3 µM
- GI50 [9]: 17.5 µM
- TGI [9]: > 50 µM

Compound: CCC[CH2][Sn]1([CH2]CCC)[S]CC[N]1S(=O)(=O)c1ccc(C)cc1
- GI50 [1]: 0.675 µM
- TGI [1]: 1.96 µM
- GI50 [3]: 1.95 µM
- TGI [3]: 3.44 µM
- GI50 [5]: 1.63 µM
- TGI [5]: 4.16 µM
- GI50 [6]: 1.36 µM
- TGI [6]: 2.68 µM
- GI50 [7]: 1.29 µM
- TGI [7]: 2.61 µM
- GI50 [8]: 1.64 µM
- TGI [8]: 3.04 µM
- GI50 [9]: 1.14 µM
- TGI [9]: 2.35 µM

Compound: COC(=O)CC[C@]12C[C@]13CC[C@]1(C)C4C(C)C[C@]5(CC(C)C(=O)O5)OC4CC1(C)C3CCC2C(C)(C)O (stereo partly specified)
- TGI [2]: > 100 µM
- TGI [3]: > 100 µM
- TGI [4]: > 100 µM
- TGI [5]: > 100 µM
- TGI [10]: > 100 µM
- TGI [6]: > 100 µM
- TGI [7]: > 100 µM
- TGI [8]: > 100 µM
- TGI [9]: > 100 µM

Compound: C1=CCCC=CCC1.C[PH+](C)C.C[PH+](C)C.C[PH+](C)C.[Cl-].[Ir]
- GI50 [2]: 76.1 µM
- TGI [2]: > 100 µM
- GI50 [3]: 91.4 µM
- TGI [3]: > 100 µM
- GI50 [4]: 31.4 µM
- TGI [4]: > 100 µM
- GI50 [5]: 35.2 µM
- TGI [5]: > 100 µM
- GI50 [10]: > 100 µM
- TGI [10]: > 100 µM
- GI50 [6]: > 100 µM
- TGI [6]: > 100 µM
- GI50 [7]: 46.6 µM
- TGI [7]: > 100 µM
- GI50 [8]: > 100 µM
- TGI [8]: > 100 µM
- GI50 [9]: > 100 µM
- TGI [9]: > 100 µM

Compound: C=C1C(OC(C)=O)CC(OC(C)=O)C2(C)C(OC(C)=O)C(OC(C)=O)C3=C(C)C(OC(=O)/C=C/c4ccccc4)CC(C(OC(C)=O)C12)C3(C)C (stereo unspecified)
- TGI [1]: > 100 µM
- TGI [3]: > 100 µM
- TGI [4]: > 100 µM
- TGI [5]: > 100 µM
- TGI [10]: > 100 µM
- TGI [6]: > 100 µM
- TGI [8]: > 100 µM
- TGI [9]: > 100 µM

Compound: COC(=O)N[C@H]1CCc2c(Cl)c(OC)c(OC)c(OC)c2-c2ccc(SC)c(=O)cc21
- GI50 [1]: < 0.0208 µM
- TGI [1]: 48.3 µM
- GI50 [2]: < 0.01 µM
- TGI [2]: 96.9 µM
- GI50 [3]: < 0.01 µM
- GI50 [4]: < 0.01 µM
- TGI [4]: 18.6 µM
- GI50 [5]: < 0.01 µM
- TGI [5]: > 100 µM
- GI50 [6]: < 0.01 µM
- TGI [6]: < 0.01 µM
- GI50 [7]: 8.52 µM
- TGI [7]: 46 µM
- GI50 [8]: 15.8 µM
- TGI [8]: > 100 µM
- GI50 [9]: < 0.0215 µM
- TGI [9]: 51.7 µM

Compound: COC(=O)N/N=C(\C)CC(=O)Nc1ccc(Cl)cc1
- TGI [2]: > 100 µM
- TGI [3]: > 100 µM
- TGI [4]: > 100 µM
- TGI [5]: > 100 µM
- TGI [10]: > 100 µM
- TGI [6]: > 100 µM
- TGI [7]: > 100 µM
- TGI [8]: > 100 µM
- TGI [9]: > 100 µM

Compound: NC(Cc1ccccc1)c1nccs1 (stereo unspecified)
- TGI [1]: > 100 µM
- TGI [2]: > 100 µM
- TGI [3]: > 100 µM
- TGI [4]: > 100 µM
- TGI [5]: > 100 µM
- TGI [6]: > 100 µM
- TGI [7]: > 100 µM
- TGI [8]: > 100 µM
- TGI [9]: > 100 µM

Compound: COc1ccc(CC2C(=O)OC(C)C(NC(=O)c3c4nc5c(C(=O)NC6C(=O)NC(C(C)C)C(=O)N7CCCC7C(=O)N(C)CC(=O)N(C)C(Cc7ccc(OC)cc7)C(=O)OC6C)ccc(C)c5oc-4c(C)c(=O)c3N)C(=O)NC(C(C)C)C(=O)N3CCCC3C(=O)N(C)CC(=O)N2C)cc1 (stereo unspecified) (I: TVP[Sar][NMeY](Me) / II: TVP[Sar][NMeY](Me); ester I:1-I:C, II:1-II:C; linker I:N-II:N via Actinocin(1to9); configuration not given here)
- GI50 [1]: < 0.01 µM and 0.0363 µM
- TGI [1]: 0.734 µM
- GI50 [2]: < 0.01 µM and 0.0696 µM
- TGI [2]: 0.0734 µM and > 0.617 µM
- GI50 [4]: < 0.01 µM and 0.00423 µM
- GI50 [10]: < 0.01 µM and 0.0306 µM
- TGI [8]: 2.69 µM and 0.969 µM

Compound: COc1cc2c3c(n(CCCNCCCN)c(=O)c2cc1OC)-c1cc2c(cc1C3=O)OCO2
- GI50 [1]: 8.22 µM
- TGI [1]: 37.3 µM
- GI50 [2]: 5.27 µM
- TGI [2]: 19.4 µM
- GI50 [4]: 0.659 µM
- TGI [4]: 3.42 µM
- GI50 [5]: 1.27 µM
- TGI [5]: 13 µM
- GI50 [10]: 3.91 µM
- TGI [10]: 16.8 µM
- GI50 [6]: 1.17 µM
- TGI [6]: 10.6 µM
- GI50 [7]: 4.37 µM
- TGI [7]: 17.8 µM
- GI50 [8]: 9.74 µM
- TGI [8]: 27.9 µM
- GI50 [9]: 15.4 µM
- TGI [9]: 38.5 µM

Compound: CC[C@H](C)[C@H](NC(=O)c1cccn1C)C(=O)N(C)[C@H](C[C@@H](OC(C)=O)c1nc(C(=O)N[C@@H](Cc2ccccc2)C[C@H](C)C(=O)OC)cs1)C(C)C
- GI50 [2]: 0.543 µM
- TGI [2]: > 33.3 µM
- GI50 [3]: 0.166 µM
- TGI [3]: > 33.3 µM
- GI50 [4]: 0.382 µM
- TGI [4]: > 33.3 µM
- GI50 [5]: 0.354 µM
- TGI [5]: > 33.3 µM
- GI50 [6]: 0.203 µM
- TGI [6]: 1.22 µM
- GI50 [7]: 1.5 µM
- TGI [7]: > 33.3 µM
- GI50 [8]: 2.61 µM
- TGI [8]: > 33.3 µM
- GI50 [9]: 1.3 µM
- TGI [9]: > 33.3 µM
